These results are taken from US20250161287A1, “METHODS, COMPOSITIONS, AND COMBINATIONS FOR PREVENTING OR TREATING CANCER RECURRENCE” (VUJA DE SCIENCES, INC., priority 2022, published 2025).

The subject of data set [1] is MG63.3 OS cell line. The data set is described as follows: in vitro 3D BME assay with MG63.3 OS cell line. It is filed as cell-based, human. The conditions noted are these: for effect on metastatic phenotype / 3D growth in 3D BME (words): MG63.3, Day 6 MTS, at or below 1 μM; for minimal effective concentration: Homo sapiens, MG-63.3, MG63.3 on 3D BME, vs vehicle control, replicates=4, read-out: lowest dose leading to appreciable inhibition of 3D growth; for activity on 3D BME compared with 2D: MG63.3, 3D BME vs 2D MTT 72 h. The source says: (§1) 3D basement membrane extract (BME) assay was developed at the NCI Barkan (D. Barkan et al. 2008; Dalit Barkan and Green 2011; Hen and Barkan 2020). BME is purified from Engelbreth-Holm-Swarm (EHS) tumor, primarily made up of laminin, collagen IV, entactin, and heparin sulfate proteoglycans (Cultrex Reduced Growth Factor Basement Membrane Extract, PathClear n.d.), which allows it to more accurately reflect the 3D extracellular environment in the body.
(§2) Initially >150 selected therapeutic agents were tested on BME based on the likelihood for either a positive effect or a […] negative effect (as negative controls). […] These therapeutic agents were also tested in dose response (as broad as 1 pM-100 μM) for 2D cytotoxicity (MTT) and the IC50 was calculated. Where required, the hits from the initial screen were also further characterized at additional doses <100 nM in order to further determine the relative selectivity compared to the 2D IC50.
(§3) The influence of drug exposure on the metastatic phenotype was assessed in an in vitro assay of ME and escape from dormancy using a 3D BME assay as previously reported, which was adapted for use with OS cells.
(§4) Cultrex® PathClear, Reduced Growth Factor Basement Membrane Extract (BME—Bio-Techne, Minneapolis, MN) was added ([…]) to a 96-well plate and allowed to gel by incubating at 37° C. for ≥30 min. Cells were harvested, washed with DMEM (no glucose, no FBS, Gibco, Grand Island, NY) and centrifuged at 1500 g×5 mins. The media was aspirated and the remaining cell pellet flicked for about 10 s to ensure disaggregation.
(§5) Cells were diluted in assay media containing 2% BME, resuspended vigorously and 150 μL of the cell suspension was added on top of the gelled 3D BME layer. […] Cell numbers were determined in control vehicle (cells in media+0.1% DMSO), or treated wells and were measured on the indicated days by addition of 20 μL/well of MTS reagent (Cell Titer 96 Aqueous One, Promega, Madison, WI), followed by incubation at 37° C. for 2 h and absorbance measurements at 490 nm via plate reader (Molecular Devices, San Jose CA).
(§6) All conditions were conducted in quadruplicate and each experiment was carried out at least 3 separate times. All comparisons were made between treatment and vehicle control at concordant time points. Statistical analyses and non-linear regressions were derived using GraphPad Prism statistical software.

Data set [2] concerns K7M2 OS cell line. Kind of data set: in vitro 3D BME assay with K7M2 OS cell line. It is filed as cell-based, mouse. Conditions: K7M2, Day 6 MTS, at or below 1 μM.
Description: as §1, §2, §3, §4, §5, §6

The target of the next data set is JAK1 (Homo sapiens, UniProt P23458). The conditions noted are these: cited from earlier work.
JAK1, sequence (P23458 whole entry, species assumed): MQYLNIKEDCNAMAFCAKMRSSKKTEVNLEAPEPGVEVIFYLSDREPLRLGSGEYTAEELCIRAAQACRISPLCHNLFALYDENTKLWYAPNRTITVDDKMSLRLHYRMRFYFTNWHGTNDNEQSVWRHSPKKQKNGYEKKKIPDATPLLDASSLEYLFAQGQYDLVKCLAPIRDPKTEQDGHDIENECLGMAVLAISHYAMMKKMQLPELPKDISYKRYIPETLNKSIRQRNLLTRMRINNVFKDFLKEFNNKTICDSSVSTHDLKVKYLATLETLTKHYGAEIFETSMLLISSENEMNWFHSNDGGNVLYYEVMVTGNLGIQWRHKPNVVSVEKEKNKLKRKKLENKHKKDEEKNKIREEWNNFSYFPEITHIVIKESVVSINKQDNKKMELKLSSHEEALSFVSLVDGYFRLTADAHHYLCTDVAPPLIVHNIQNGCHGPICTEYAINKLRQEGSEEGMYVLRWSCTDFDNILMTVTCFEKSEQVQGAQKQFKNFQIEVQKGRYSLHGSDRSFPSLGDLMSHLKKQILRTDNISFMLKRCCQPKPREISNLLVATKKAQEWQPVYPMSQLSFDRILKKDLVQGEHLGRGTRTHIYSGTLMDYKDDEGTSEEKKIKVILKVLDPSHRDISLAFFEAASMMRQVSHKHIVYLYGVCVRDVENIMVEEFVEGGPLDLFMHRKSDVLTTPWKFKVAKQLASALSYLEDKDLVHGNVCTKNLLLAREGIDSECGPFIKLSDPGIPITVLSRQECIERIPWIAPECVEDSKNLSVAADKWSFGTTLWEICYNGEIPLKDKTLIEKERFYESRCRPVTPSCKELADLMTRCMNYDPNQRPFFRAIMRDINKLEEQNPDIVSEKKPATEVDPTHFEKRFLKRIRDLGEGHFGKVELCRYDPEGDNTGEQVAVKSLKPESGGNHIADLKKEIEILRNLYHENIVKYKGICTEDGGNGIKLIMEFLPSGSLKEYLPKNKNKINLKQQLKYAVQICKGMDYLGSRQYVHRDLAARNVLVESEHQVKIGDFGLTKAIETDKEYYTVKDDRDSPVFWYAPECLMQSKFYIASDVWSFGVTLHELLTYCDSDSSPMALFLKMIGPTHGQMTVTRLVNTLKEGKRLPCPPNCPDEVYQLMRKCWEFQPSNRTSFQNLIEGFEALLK
Data set [3] has as its system K7M2 OS cell line. Kind of data set: 2D growth / cytotoxicity by MTT, K7M2. The format is cell-based, mouse. How it is done:
The number of viable cells present in 2D culture was determined by MTT as previously reported. Briefly, cells were plated in 96-well plates at 2,000 cells/well and incubated at 37° C. for 24 h. […] After 72 h, MTT reagent (20 L/well of a 5 mg/mL stock solution in sterile water; Sigma, St. Louis, MO) was added to each well and the plate was incubated at 37° C. for 2 h. DMSO ([…]) was then added to each well to solubilize the formazan crystals.
(§7) The resulting absorbance was measured at 490 nm via plate reader (Molecular Devices, San Jose, CA). DMSO (0.1%) was used as vehicle control, while 20 μM rapamycin was used as a positive cell-kill control. The experimental conditions were conducted in triplicate and each experiment was repeated three times. Regression lines and IC50's were calculated using a four-parameter variable slope nonlinear fit in GraphPad Prism.

The test system of data set [4] is MG63.3 OS cell line. Kind of data set: 2D growth / cytotoxicity by MTT, MG63.3. How it is done: The number of viable cells present in 2D culture was determined by MTT as previously reported. Briefly, cells were plated in 96-well plates at 2,000 cells/well and incubated at 37° C. for 24 h. After 24 h, the media was replaced with fresh media containing drugs at the desired concentrations (10 pM-10 μM) and incubated at 37° C. for 72 h. After 72 h, MTT reagent (20 L/well of a 5 mg/mL stock solution in sterile water; Sigma, St. Louis, MO) was added to each well and the plate was incubated at 37° C. for 2 h. DMSO ([…]) was then added to each well to solubilize the formazan crystals.
as §7

A further data set concerns MG63.3 human OS cells. Kind of data set: PuMA (ex vivo Pulmonary Metastasis Assay) with MG63.3. It is filed as cell-based. The conditions noted are these: single agents, two doses: 100 nM and 1 μM (rapamycin 100 nM and 1 pM [sic]; AZD8055 10 and 100 nM), replicates=3-5. How it is done:
FIG. 23A is a schematic illustrating the metastatic progression of GFP-expressing OS cells conducted by injecting single cells via tail vein injection, followed by lung excision and insufflation 15 mins post-injection. The formation of multicellular colonies in the mouse lung microenvironment can be assessed 14-21 days post-injection.
Dissected lungs are then sectioned and grown on sponges.

In another data set the test system is MG63.3 OS cells. Kind of data set: in vitro SISGel assay with highly metastatic MG63.3 OS cells. The conditions noted are these: for activity on 3D SISGel compared with 2D: MG63.3, SISGel vs 2D MTT 72 h; for lowest dose leading to appreciable inhibition of 3D growth: MG63.3 on SISGel, vs vehicle control, replicates=4. The format is cell-based, human. The source says:
SISGel is comprised of porcine small intestine submucosa gel that was originally developed at Oklahoma State U., by R. Hurst (CSO) and M. Ihnat (Consultant) (Bailey-Downs et al. 2014; Hurst et al. 2013, 2015, 2016). Unlike BME which is derived from a tumor-based matrix, SISGel is derived from healthy stroma and provides a suppressive “normal” ECM. […] Conditions have been identified that promoted suppressed ME-type profile (FIG. 2A). […] In addition to SISGel's complementarity to the BME assay, it can also be conducted in a 96-well format, enabling a high-throughput system to model suppressed/dormant cancer cells to further validate the screening results in BME.

The structures appear in SMILES notation.

Turning to `CNS(=O)(=O)C[C@H]1CC[C@H](N(C)c2ncnc3[nH]ccc23)CC1` [oclacitinib], the “effect on metastatic phenotype / 3D growth in 3D BME (words)” value in the data set with MG63.3 OS cell line [1] was “did not inhibit MG63.3 cells at any dose”; with MG63.3 OS cell line [1] (listed as Oclacitinib) it was “no significant effect”; in the data set with K7M2 OS cell line [2] it was “statistically significant but very minimal inhibition”; in the data set with K7M2 OS cell line [2] (listed as Oclacitinib), “statistically significant but very small level of inhibition”. Besides, the “inhibitory action against JAK1 relative to JAK2” value at JAK1 is 1.8 times. Moreover, the “inhibitory action against JAK1 relative to JAK3” value at JAK1 is 9.9 times. Moreover, the “non-cytotoxic drug exposures in 2D” value in the data set on K7M2 OS cell line [3] (K7M2, MTT 72 h, 10 pM-100 μM) is “below 1 μM”. Further, the “effect on cell number in 2D monolayer” value in the data set on K7M2 OS cell line [3] (K7M2, MTT, exposures up to 1 μM) was “minimal inhibition of OS cell number”; with MG63.3 OS cell line [4] (MG63.3, MTT, exposures up to 1 μM / assessed exposures), “minimal inhibition of OS cell number”.
`CO[C@H]1C[C@@H]2CC[C@@H](C)[C@@](O)(O2)C(=O)C(=O)N2CCCC[C@H]2C(=O)O[C@H]([C@H](C)C[C@@H]2CC[C@@H](OC(=O)C(C)(CO)CO)[C@H](OC)C2)CC(=O)[C@H](C)/C=C(\C)[C@@H](O)[C@@H](OC)C(=O)[C@H](C)C[C@H](C)/C=C/C=C/C=C/1C` [temsirolimus]: in the data set on MG63.3 OS cell line [1], the minimal effective concentration came to 0.001 µM and the “activity on 3D BME compared with 2D” value is reported as “much stronger activity on 3D BME at significantly lower doses”. For the same compound, the “inhibition of ME (loss of GFP signal in the lung tissue)” value in the data set with MG63.3 human OS cells is reported as “strong inhibition of ME”. For the same compound, in the data set on MG63.3 OS cells, the “activity on 3D SISGel compared with 2D” value is reported as “much stronger activity on 3D SISGel at significantly lower doses” and the “lowest dose leading to appreciable inhibition of 3D growth” value came out at 1 pM.
As for `CO[C@H]1C[C@@H]2CC[C@@H](C)[C@@](O)(O2)C(=O)C(=O)N2CCCC[C@H]2C(=O)O[C@H]([C@H](C)C[C@@H]2CC[C@@H](OP(C)(C)=O)[C@H](OC)C2)CC(=O)[C@H](C)/C=C(\C)[C@@H](O)[C@@H](OC)C(=O)[C@H](C)C[C@H](C)/C=C/C=C/C=C/1C` [ridaforolimus], in the data set with MG63.3 OS cell line [1], the minimal effective concentration stood at 0.001 µM and the “activity on 3D BME compared with 2D” value is “much stronger activity on 3D BME at significantly lower doses”. In addition, the “inhibition of ME (loss of GFP signal in the lung tissue)” value in the data set on MG63.3 human OS cells is reported as “strong inhibition of ME”. In addition, in the data set on MG63.3 OS cells, the “activity on 3D SISGel compared with 2D” value is “much stronger activity on 3D SISGel at significantly lower doses” and the “lowest dose leading to appreciable inhibition of 3D growth” value amounted to 100 pM. The “doses exhibiting cytotoxicity on 2D growth” value with MG63.3 OS cell line [4] (human, 72 h) is greater than 33 µM.
